The record followed here is patent US5770688A, “Method and composition for the treatment of mammalian HIV infection” (GSF-Forschungszentrum fur Umwelt und Gesundheit GmbH, priority 1989, dated 1998).

Test [1] relates to HIV. Nature of the test: HIV release from chronically infected cells (Biomek 1000). It is filed as cell-based. As to conditions: for inhibition of viral cell (HIV) release from infected cells, in words: FIGS. 6-19; for overall effect, in words: FIGS. 20-29. From the text: (§1) A series of experiments and which are illustrated graphically in FIGS. 6 through 34, respectively, were designed to detect two extremes. In particular the tests were designed to detect the inhibition of viral release and/or the release of virus which has a reduced ability to infect other cells. This reduced ability to infect other cells is represented, for example, by glycosylation inhibitors, the direct effect on virus release is represented by acylation inhibitors, RT inhibitors and melittin (Seq. ID NO:1). The most important feature of this experimental design, however, is to detect the toxicity of melittin. The present experiments were carried out on both the astrocytoma cell line LC5-HIV (cloned infected cells) and T-lymphocytoma cell line KE37-1/IIIβ (cloned infected cells with HTLV-IIIβ). In both cases the results were essentially identical.
(§2) In the present series of experiments HIV release was tested by a fully automated laboratory robot system and which is manufactured by Beckman Instruments as the Biomek 1000. This system performed the following steps. First, chronically infected cells (cloned) are plated in microtiter plates and grown for a period of seven days. They are then challenged by melittin (Seq. ID NO:1) during this period either for the final day or throughout the period as shown in the figures. The number of living cells are quantified by MTT, that is by a metabolic (dehydrogenase) test. The MTT test is automatically performed. The toxic effect is detected at the time of the experiment and not in a separate control experiment. Furthermore, the supernatant, and which contains released virus cells from the period of time which elapsed from the last wash, and which may vary from 24 hours to 7 days, is collected from the culture, and an aliquot is saved for virus quantification by employing antigen or viral enzyme reverse transcriptase (RT). Furthermore, an aliquot is added to a culture of uninfected cells in microtiter plates for subsequent measurement of the ability of the virus cells to reinfect these uninfected cells. In this regard, the number of infected cells is automatically quantified by an immunoperoxidase staining technique. The test results, as shown, are expressed in terms of toxicity of the melittin (MTT test); the release of HIV from the primary culture (RT test); and the ability of the released virus to infect previously uninfected cells.

Test [2] deals with HIV-infected LC5 cells. Nature of the test: MTT toxicity/killing of HIV infected cells (Biomek 1000). It is filed as cell-based, human. On the procedure: The KE37-1 (uninfected) and KE37-1/111β (infected) cell lines discussed below are commercially available from the Dr. Robert Gallows Laboratory of the NIH in the United States of America and grown in a medium of RPMI 1640 (GIBCO) and further supplemented with 10% fetal calf serum which contained approximately 100 units of penicillin, 100 μg streptomycin, and approximately 0.25 μg fungizone (Amphotericin B) per milliliter. The human mesenchymal cell lines LC5 and LC5-HIV, discussed below, are deposited with the Collection De L'Institut Pasteur of Paris, France on Mar. 9, 1989 and given the accession numbers I-842 and I-843, respectively. The LC5 and LC5-HIV cell lines were grown in a medium of RPMI 1640 and supplemented with 10% fetal calf serum.
as §1, §2

For test [3], the system named is Rausher leukemia virus. As to conditions: 2 weeks.
Experimental: The size of the spleen is taken as a measure of the progress of the disease which eventually leads to the death of the infected animals.
The test of the antiviral effect of the melittin (Seq. ID NO:1) principle was carried out on Balb C mice (12 weeks old; all males). The animals were kept in numbers of 4 per cage. The animals were infected by Rausher leukemia virus (10^5 infectious particles (viruses) per animal in a volume of 0.2 ml) by intraperitoneal injection (ip) followed by subcutaneous injection of the test substance after 10 minutes. The animals were divided into two groups referred to as controls (receiving a sham injection of saline) or test animals (receiving the melittin analogue).
The peptide was dissolved as 100 μg/ml and the controls as well as the test animals were injected with the same volume subcutaneously (0.1 ml) of PBS or PBS+test substance respectively. The injection was carried out 10 minutes after injection of the infectious virus. After 2 days the animals received a new injection of melittin analogue (10 μg/mg body weight) or PBS as a subcutaneous injection of 0.100 ml. After 4 days from the first injection a third injection was performed using 20 μg/mg body weight of melittin analogue.

“Gly-Ile-Gly-Ala-Val-Leu-Lys-Val-Leu-Thr-Thr-Gly-Leu-Pro-Ala-Leu-Ile-Ser-Trp-Ile-Gly-Gly-Gly-Gly-Gly-Gly [melittin (1-20)-6-(Gly)-Amide]”: the “inhibition of viral cell (HIV) release from infected cells, in words” value in test [1] is “inhibited HIV release”. Also, in test [2], the “inhibition of growth / survival of infected cells, in words” value is given as “inhibited the growth of infected cells”. Also, in test [3], the “animals with spleens greater than 150 mg but lower than 170 mg (borderline)” value is listed as 25%, the “infected animals that do not develop disease” value is 75%, the “number of animals with pathological spleen” value is listed as “one” and the “spleen weight of the rest of the test group” value fell in the range of 100 to 150 mg.

Take “MHC: MHC (Seq. ID NO:10), (MAJOR histocompatibility complex sequence) (VAAKANRVADEIRHKREKLE) [reference compound]”: the “overall effect, in words” value in test [1] is listed as “do not have any readily apparent effects”.

Turning to “Melittin COOH: Melittin COOH was tested and appeared to be less efficient than the melittin amid”, in test [1], the “efficiency compared with melittin amid” value is “less efficient than the melittin amid”.

With “control peptide: HOLST peptide (negative control); no apparent structural similarity to melittin (FAESGVDTPVFNSY) [reference compound]”, in test [1], the “overall effect, in words” value was “without effect”.

Consider mastoparan [reference compound], for which the “overall effect, in words” value in test [1] is listed as “do not have any readily apparent effects”.

Consider “melittin 1-20: melittin 1-20 (Seq. ID NO:7) lacks the cell binding part of the molecule”, for which the “inhibition of viral cell (HIV) release from infected cells, in words” value in test [1] is “inhibited HIV release as did the natural melittin and melittin (1-20)-6-(Gly)-Amide”. In test [2], the “inhibition of growth / survival of infected cells, in words” value is given as “inhibited the growth of infected cells”.
